Calls of active or inactive are those of the source. No cut-off for these calls is given here.
What was measured:
[1] = system: Rattus norvegicus; experiment: Antiparkinsonian effect in Parkinson's disease rat model of assessed as reduction in L-DOPA-induced dyskinesia at 0.5 to 1.5 mg/kg, ip qd for 21 days treated 15 mins before L-DOPA challenge measured on day 14, 17 and 23; assay type: functional, organism-based
[2] = system: Rattus norvegicus; experiment: Antiparkinsonian effect in 6-hydroxydopamine lesioned Sprague-Dawley rat Parkinson's disease model assessed as induction of FosB expression in striatum at 1.5 mg/kg administered qd for 21 days by Western blot analysis; assay type: functional, organism-based; set-up: dose 1.5 mg/kg
[3] = target: T1, Alpha-1B adrenergic receptor (Homo sapiens, UniProt P35368); experiment: Antagonist activity at adrenergic Alpha-1B receptor expressed in CHO cells assessed as inhibition of adrenaline-induced intracellular calcium after 3 to 5 mins by Fluo-4/AM assay; assay type: functional, cell-based
T1 sequence (P35368 whole entry): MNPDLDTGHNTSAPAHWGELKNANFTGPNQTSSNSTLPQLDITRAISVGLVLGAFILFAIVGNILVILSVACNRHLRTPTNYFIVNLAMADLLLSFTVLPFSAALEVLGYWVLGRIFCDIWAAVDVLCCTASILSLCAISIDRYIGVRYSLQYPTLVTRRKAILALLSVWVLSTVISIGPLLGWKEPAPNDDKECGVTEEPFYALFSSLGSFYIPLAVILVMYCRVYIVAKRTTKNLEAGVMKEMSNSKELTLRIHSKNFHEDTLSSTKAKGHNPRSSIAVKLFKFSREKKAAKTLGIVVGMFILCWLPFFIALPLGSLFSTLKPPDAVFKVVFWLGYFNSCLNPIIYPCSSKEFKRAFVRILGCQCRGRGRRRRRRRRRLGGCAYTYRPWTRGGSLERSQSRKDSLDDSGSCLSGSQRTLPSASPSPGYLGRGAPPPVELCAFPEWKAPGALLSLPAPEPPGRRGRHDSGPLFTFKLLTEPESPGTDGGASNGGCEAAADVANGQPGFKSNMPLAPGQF

[4] = system: Rattus norvegicus; experiment: Agonist activity at 5HT1A receptor in lesioned striatum of rat L-DOPA-induced dyskinesia model assessed as stimulation of 8-OH-DPAT-induced [35S]GTPgammaS binding at 1.5 mg/kg administered qd for 21 days by liquid scintillation counting; assay type: functional, organism-based; set-up: dose 1.5 mg/kg
[5] = target: T2, D(2) dopamine receptor (Homo sapiens, UniProt P14416); experiment: Displacement of [3H]spiperone from dopamine D2 receptor expressed in HEK293 cells after 50 mins by beta liquid scintillation counter; assay type: cell-based
[6] = target: D(1A) dopamine receptor (Homo sapiens, UniProt P21728); experiment: Displacement of [3H]SCH23390 from dopamine D1 receptor expressed in HEK293 cells at 10 uM after 50 mins by beta liquid scintillation counter; assay type: cell-based
[7] = target: 5-hydroxytryptamine receptor 2A (Homo sapiens, UniProt P28223); experiment: Displacement of [3H]ketanserin from 5-HT2A receptor expressed in CHO cells at 10 uM after 50 mins by beta liquid scintillation counter; assay type: cell-based
[8] = target: Beta-2 adrenergic receptor (Homo sapiens, UniProt P07550); experiment: Antagonist activity at adrenergic beta2 receptor expressed in HEK293 cells co-transfected with Galpha16 assessed as inhibition of adrenaline-induced intracellular calcium after 3 to 5 mins by Fluo-4/AM assay; assay type: functional, cell-based
[9] = target: T2, D(2) dopamine receptor; experiment: Agonist activity at dopamine D2 receptor expressed in HEK293 cells assessed as stimulation of [35S]GTPgammaS binding after 30 mins; assay type: functional, cell-based

T2 sequence (P14416 whole entry): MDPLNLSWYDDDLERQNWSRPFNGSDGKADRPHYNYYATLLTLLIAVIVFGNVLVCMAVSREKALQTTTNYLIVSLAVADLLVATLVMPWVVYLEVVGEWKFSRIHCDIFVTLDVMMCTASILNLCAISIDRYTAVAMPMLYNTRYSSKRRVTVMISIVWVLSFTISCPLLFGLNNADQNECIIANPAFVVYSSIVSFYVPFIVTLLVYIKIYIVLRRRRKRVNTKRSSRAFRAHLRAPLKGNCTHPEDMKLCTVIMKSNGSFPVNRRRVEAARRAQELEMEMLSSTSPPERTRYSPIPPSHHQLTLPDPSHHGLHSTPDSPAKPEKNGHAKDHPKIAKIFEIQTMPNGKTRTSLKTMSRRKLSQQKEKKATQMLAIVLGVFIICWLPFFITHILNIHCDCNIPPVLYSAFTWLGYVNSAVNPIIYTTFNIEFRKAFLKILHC
Beta-2 adrenergic receptor, sequence (P07550 whole entry): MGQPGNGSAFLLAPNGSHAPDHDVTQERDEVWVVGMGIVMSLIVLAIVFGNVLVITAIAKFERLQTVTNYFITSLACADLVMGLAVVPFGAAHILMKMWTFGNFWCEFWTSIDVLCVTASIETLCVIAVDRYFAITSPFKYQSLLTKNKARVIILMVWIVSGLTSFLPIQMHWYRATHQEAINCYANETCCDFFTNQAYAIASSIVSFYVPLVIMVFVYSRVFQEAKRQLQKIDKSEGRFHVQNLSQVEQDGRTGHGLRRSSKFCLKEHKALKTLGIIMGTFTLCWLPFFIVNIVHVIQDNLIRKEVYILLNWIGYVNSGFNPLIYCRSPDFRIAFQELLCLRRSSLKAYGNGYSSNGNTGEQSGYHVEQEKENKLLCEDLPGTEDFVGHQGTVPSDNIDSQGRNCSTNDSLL
D(1A) dopamine receptor, sequence (P21728 whole entry): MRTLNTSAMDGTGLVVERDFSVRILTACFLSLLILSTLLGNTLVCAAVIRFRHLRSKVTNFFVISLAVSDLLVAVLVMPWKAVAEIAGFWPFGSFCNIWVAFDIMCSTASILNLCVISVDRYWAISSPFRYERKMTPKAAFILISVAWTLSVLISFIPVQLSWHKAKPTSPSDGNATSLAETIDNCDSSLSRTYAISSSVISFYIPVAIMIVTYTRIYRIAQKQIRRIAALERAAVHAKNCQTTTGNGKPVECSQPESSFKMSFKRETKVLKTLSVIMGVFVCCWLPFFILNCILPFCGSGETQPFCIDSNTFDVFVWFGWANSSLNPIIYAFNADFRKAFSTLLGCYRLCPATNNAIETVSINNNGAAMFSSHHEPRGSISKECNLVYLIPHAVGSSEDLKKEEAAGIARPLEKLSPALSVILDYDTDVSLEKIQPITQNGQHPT
5-hydroxytryptamine receptor 2A, sequence (P28223 whole entry): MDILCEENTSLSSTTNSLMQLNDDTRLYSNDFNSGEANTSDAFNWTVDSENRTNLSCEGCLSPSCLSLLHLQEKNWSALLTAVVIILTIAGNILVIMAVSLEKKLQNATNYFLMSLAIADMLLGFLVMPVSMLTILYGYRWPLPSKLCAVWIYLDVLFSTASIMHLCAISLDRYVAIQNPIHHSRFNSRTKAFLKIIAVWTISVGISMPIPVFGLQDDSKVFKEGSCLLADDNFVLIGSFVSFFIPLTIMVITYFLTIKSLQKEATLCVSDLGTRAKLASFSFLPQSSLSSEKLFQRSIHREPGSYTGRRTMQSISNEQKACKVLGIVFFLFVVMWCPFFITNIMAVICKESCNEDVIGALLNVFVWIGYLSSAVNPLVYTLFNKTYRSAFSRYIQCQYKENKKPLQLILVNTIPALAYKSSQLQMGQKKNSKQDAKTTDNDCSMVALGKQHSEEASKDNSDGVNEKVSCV

IC50 [3]: > 10000 nM | Ki [5]: 174 nM | inhibition [6]: 55.7% | inhibition [7]: 48% | IC50 [8]: > 10000 nM | EC50 [9]: 320 nM
Structure (SMILES): CCCN1CCc2cccc3c2[C@H]1Cc1cccc(OC(=O)CCCCC2CCSS2)c1-3 (some centres undefined)
Activity [1]: Active | Activity [2]: inactive | Activity [4]: Active

From ChEMBL document CHEMBL1806354 (J Med Chem, 2011)
